Laboratory results as given in US20240034727A1, “IMIDAZOLE COMPOUNDS AS INHIBITORS OF ENPP1” (STINGRAY THERAPEUTICS, INC., priority 2020, published 2024).

Biological target: Recombinant Human ENPP-1 Protein (Homo sapiens (Human), UniProt P22413)
Experiment: ENPP1 Inhibition Assay
Assay type: biochemical
Settings: substrate Thymidine 5′-monophosphate p-nitrophenol ester; pH 9.0; 37° C. for 45 minutes; absorbance at 405 nm
Description: Assay Buffer: 1 mM CaCl2), 0.2 mM ZnCl2, 50 mM Tris, pH 9.0. Substrate: 8 mM Thymidine 5′-monophosphate p-nitrophenol ester sodium salt (Sigma Cat #T4510). Enzyme: […] Recombinant Human ENPP-1 Protein (R&D Cat #6136-EN-010) in DMSO in 96-well clear assay plates.
An eight point serial dilution of drugs was prepared in 10× in assay buffer with the final assay concentrations starting at 10 μM, 3 μM, 1 μM, 0.3 μM and 0 μM. A dilution of DMSO was included as a control. The assay plate was set up as follows with each well in duplicate: 81 μL assay buffer+10 μL ENPP1 inhibitor or DMSO+5 μL Substrate+4 μL Enzyme. Both the enzyme and substrate was added to opposite sides of the well to ensure that there was no interaction until all wells had both components. The plate was then centrifuged gently for 10 seconds, followed by an incubation at 37° C. for 45 minutes. The reaction was quantified by measuring absorbance at 405 nm using the Envision.
IC50 values are determined using GraphPad Prism 5 software. The data were entered as an X-Y plot into the software as percent inhibition for each concentration of the drug. The concentration values of the drug were log transformed and the nonlinear regression was carried out using the “sigmoidal dose-response (variable slope)” option within the GraphPad software to model the data and calculate IC50 values. The IC50 values reported are the concentration of drug at which 50% inhibition was reached.

Recombinant Human ENPP-1 Protein, sequence (P22413 whole entry): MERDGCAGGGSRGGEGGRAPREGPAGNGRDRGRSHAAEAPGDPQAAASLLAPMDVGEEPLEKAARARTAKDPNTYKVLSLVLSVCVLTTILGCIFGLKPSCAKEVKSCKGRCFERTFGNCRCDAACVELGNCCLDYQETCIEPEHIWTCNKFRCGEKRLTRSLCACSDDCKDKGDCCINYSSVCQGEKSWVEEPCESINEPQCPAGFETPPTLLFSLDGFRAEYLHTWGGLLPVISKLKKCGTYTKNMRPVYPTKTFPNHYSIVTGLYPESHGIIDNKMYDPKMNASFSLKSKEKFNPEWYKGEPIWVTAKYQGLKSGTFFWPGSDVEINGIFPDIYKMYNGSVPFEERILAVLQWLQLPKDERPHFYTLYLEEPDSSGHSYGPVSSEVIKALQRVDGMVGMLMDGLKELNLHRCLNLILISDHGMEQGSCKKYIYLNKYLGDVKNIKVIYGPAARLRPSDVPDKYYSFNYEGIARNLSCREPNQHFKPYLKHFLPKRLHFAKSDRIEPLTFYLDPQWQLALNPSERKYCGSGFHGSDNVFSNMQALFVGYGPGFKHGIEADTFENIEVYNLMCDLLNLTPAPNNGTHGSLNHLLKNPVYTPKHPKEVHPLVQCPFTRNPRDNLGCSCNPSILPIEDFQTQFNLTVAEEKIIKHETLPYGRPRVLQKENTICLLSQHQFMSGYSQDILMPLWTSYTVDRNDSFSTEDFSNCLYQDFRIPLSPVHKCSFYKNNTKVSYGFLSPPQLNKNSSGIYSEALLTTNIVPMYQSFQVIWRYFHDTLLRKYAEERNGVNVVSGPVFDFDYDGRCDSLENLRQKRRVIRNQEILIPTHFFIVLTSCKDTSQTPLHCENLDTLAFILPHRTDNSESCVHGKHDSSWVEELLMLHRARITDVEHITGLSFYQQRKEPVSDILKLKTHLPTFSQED

IC50 [µM]	Structure (SMILES)
> 10	COc1ccc(NC(=O)CSc2nc(C(=O)O)c[nH]2)c(OC)c1F [Compound I-9, 2-((2-((3-fluoro-2,4-dimethoxyphenyl)amino)-2-oxoethyl)thio)-1H-imidazole-4-carboxylic acid]
< 0.2	COc1ccc(NC(=O)CSc2nc(C(=O)OCC(O)CO)c[nH]2)cc1OC (stereo not drawn) [Compound I-30, 2,3-dihydroxypropyl 2-((2-((3,4-dimethoxyphenyl)amino)-2-oxoethyl)thio)-1H-imidazole-4-carboxylate]
< 0.2	COc1ccc(NC(=O)CSc2nc(C(N)=O)c[nH]2)cc1OC [Compound I-1, 2-((2-((3,4-dimethoxyphenyl)amino)-2-oxoethyl)thio)-1H-imidazole-4-carboxamid]
< 0.2	CCOC(=O)c1c[nH]c(SCC(=O)Nc2ccc(OC)c(OC)c2)n1 [Compound I-6, ethyl 2-((2-((3,4-dimethoxyphenyl)amino)-2-oxoethyl)thio)-1H-imidazole-4-carboxylate]
< 0.2	COc1ccc(NC(=O)CSc2nc(-c3nnn[nH]3)c[nH]2)cc1OC [Compound I-28, 2-((4-(1H-tetrazol-5-yl)-1H-imidazol-2-yl)thio)-N-(3,4-dimethoxyphenyl)acetamide]
0.2 to 10	COc1ccc(CNC(=O)CSc2nc(C(=O)O)c[nH]2)cc1OC [Compound I-32, 2-((2-((3,4-dimethoxybenzyl)amino)-2-oxoethyl)thio)-1H-imidazole-4-carboxylic acid]
0.2 to 10	O=C(CSc1nc(C(=O)O)c[nH]1)Nc1ccc(Br)cc1 [Compound I-23, 2-((2-((4-bromophenyl)amino)-2-oxoethyl)thio)-1H-imidazole-4-carboxylic acid]
> 10	Cc1ccc(NC(=O)CSc2nc(C(=O)O)c[nH]2)cc1C [Compound I-31, 2-((2-((3,4-dimethylphenyl)amino)-2-oxoethyl)thio)-1H-imidazole-4-carboxylic acid]
0.2 to 10	O=C(CSc1nc(C(=O)O)c[nH]1)Nc1ccc(Cl)cc1F [Compound I-7, 2-((2-((4-chloro-2-fluorophenyl)amino)-2-oxoethyl)thio)-1H-imidazole-4-carboxylic acid]
> 10	O=C(CSc1nc(C(=O)O)c[nH]1)NCc1ccc(Cl)cc1 [Compound I-22, 2-((2-((4-chlorobenzyl)amino)-2-oxoethyl)thio)-1H-imidazole-4-carboxylic acid]
> 10	O=C(CSc1nc(C(=O)O)c[nH]1)NCc1cccc(Br)c1 [Compound I-11, 2-((2-((3-bromobenzyl)amino)-2-oxoethyl)thio)-1H-imidazole-4-carboxylic acid]
> 10	COc1ccc(NC(=O)CSc2nc(C(=O)O)c[nH]2)c(OC)c1OC [Compound I-26, 2-((2-oxo-2-((2,3,4-trimethoxyphenyl)amino)ethyl)thio)-1H-imidazole-4-carboxylic acid]
0.2 to 10	COc1ccc(Br)cc1NC(=O)CSc1nc(C(=O)O)c[nH]1 [Compound I-36, 2-((2-((5-bromo-2-methoxyphenyl)amino)-2-oxoethyl)thio)-1H-imidazole-4-carboxylic acid]
> 10	Cc1ccc(F)c(NC(=O)CSc2nc(C(=O)O)c[nH]2)c1 [Compound I-17, 2-((2-((2-fluoro-5-methylphenyl)amino)-2-oxoethyl)thio)-1H-imidazole-4-carboxylic acid]
> 10	Cc1cccc(NC(=O)CSc2nc(C(=O)O)c[nH]2)c1C [Compound I-19, 2-((2-((2,3-dimethylphenyl)amino)-2-oxoethyl)thio)-1H-imidazole-4-carboxylic acid]
> 10	COc1ccc(CNC(=O)CSc2nc(C(=O)O)c[nH]2)c(OC)c1 [Compound I-15, 2-((2-((2,4-dimethoxybenzyl)amino)-2-oxoethyl)thio)-1H-imidazole-4-carboxylic acid]
0.2 to 10	O=C(CSc1nc(C(=O)O)c[nH]1)Nc1ccc(Cl)cc1 [Compound I-20, 2-((2-((4-chlorophenyl)amino)-2-oxoethyl)thio)-1H-imidazole-4-carboxylic acid]

IC50 [µM]	Structure (SMILES)
0.2 to 10	COc1ccc(NC(=O)CSc2nc(C(=O)OCCN(C)C)c[nH]2)cc1OC [Compound I-29, 2-(dimethylamino)ethyl 2-((2-((3,4-dimethoxyphenyl)amino)-2-oxoethyl)thio)-1H-imidazole-4-carboxylate]
0.2 to 10	COc1cc(NC(=O)CSc2nc(C(=O)O)c[nH]2)c(OC)cc1Cl [Compound I-27, 2-((2-((4-chloro-2,5-dimethoxyphenyl)amino)-2-oxoethyl)thio)-1H-imidazole-4-carboxylic acid]
0.2 to 10	COc1ccc(CNC(=O)CSc2nc(C(=O)O)c[nH]2)cc1 [Compound I-37, 2-((2-((4-methoxybenzyl)amino)-2-oxoethyl)thio)-1H-imidazole-4-carboxylic acid]
< 0.2	COc1cc(NC(=O)CSc2nc(C(=O)O)c[nH]2)ccc1Cl [Compound I-14, 2-((2-((4-chloro-3-methoxyphenyl)amino)-2-oxoethyl)thio)-1H-imidazole-4-carboxylic acid]
> 10	O=C(CSc1nc(C(=O)O)c[nH]1)Nc1c(Cl)cccc1Cl [Compound I-18, 2-((2-((2,6-dichlorophenyl)amino)-2-oxoethyl)thio)-1H-imidazole-4-carboxylic acid]
< 0.2	COc1ccc(NC(=O)CSc2nc(C(=O)O)c[nH]2)cc1Br [Compound I-34, 2-((2-((3-bromo-4-methoxyphenyl)amino)-2-oxoethyl)thio)-1H-imidazole-4-carboxylic acid]
< 0.2	COc1ccc(NC(=O)CSc2nc(C(=O)O)c[nH]2)cc1C#N [Compound I-33, 2-((2-((3-cyano-4-methoxyphenyl)amino)-2-oxoethyl)thio)-1H-imidazole-4-carboxylic acid]
> 10	O=C(CSc1nc(C(=O)O)c[nH]1)Nc1c(F)cccc1F [Compound I-13, 2-((2-((2,6-difluorophenyl)amino)-2-oxoethyl)thio)-1H-imidazole-4-carboxylic acid]
< 0.2	COc1ccc(NC(=O)CSc2nc(/C(N)=N/O)c[nH]2)cc1OC [Compound I-5, (Z)-N-(3,4-dimethoxyphenyl)-2-((4-(N′-hydroxycarbamimidoyl)-1H-imidazol-2-yl)thio)acetamide]
0.2 to 10	COc1cc(NC(=O)CSc2nc(C(=O)O)c[nH]2)cc(OC)c1 [Compound I-25, 2-((2-((3,5-dimethoxyphenyl)amino)-2-oxoethyl)thio)-1H-imidazole-4-carboxylic acid]
0.2 to 10	CNC(=O)c1c[nH]c(SCC(=O)Nc2ccc(OC)c(OC)c2)n1 [Compound I-2, 2-((2-((3,4-dimethoxyphenyl)amino)-2-oxoethyl)thio)-N-methyl-1H-imidazole-4-carboxamide]
> 10	O=C(CSc1nc(C(=O)O)c[nH]1)Nc1ccc(N2CCOCC2)cc1 [Compound I-24, 2-((2-((4-morpholinophenyl)amino)-2-oxoethyl)thio)-1H-imidazole-4-carboxylic acid]
< 0.2	COc1ccc(NC(=O)CSc2nc(C(=O)O)c[nH]2)cc1F [Compound I-10, 2-((2-((3-fluoro-4-methoxyphenyl)amino)-2-oxoethyl)thio)-1H-imidazole-4-carboxylic acid]
0.2 to 10	COc1ccc(Oc2ccc(NC(=O)CSc3nc(C(=O)O)c[nH]3)cc2)cc1 [Compound I-16, 2-((2-((4-(4-methoxyphenoxy)phenyl)amino)-2-oxoethyl)thio)-1H-imidazole-4-carboxylic acid]
< 0.2	COc1ccc(NC(=O)CSc2nc(C#N)c[nH]2)cc1OC [Compound I-4, 2-((4-cyano-1H-imidazol-2-yl)thio)-N-(3,4-dimethoxyphenyl)acetamide]
< 0.2	COc1ccc(NC(=O)CSc2nc(C(=O)O)c[nH]2)cc1OC [Compound I-3, 2-((2-((3,4-dimethoxyphenyl)amino)-2-oxoethyl)thio)-1H-imidazole-4-carboxylic acid]
